Test results: patent EP0366451A2, “The use of oxidized polyamines, especially NN'-Bis-(3-propionaldehyde)-1-4-diaminobutane (sperminedialdehyde) as immunosuppressive agents” (ORTHO PHARMACEUTICAL CORPORATION, priority 1988, dated 1990)

Key:
[1] = system: Cytosolic ALDH in mouse liver; assay: NAD-linked cytosolic ALDH assay, mouse liver; format: biochemical
Experimental: (§1) Cultured murine leukemic cells and livers (excised from mice immediately after cervical dislocation) were homogenized in 3 volumes of ice-cold 1.15% KCl and 1 mM EDTA. The homogenate was centrifuged at 100,000 g for 45 min and the resulting supernatant was used to measure cytosolic ALDH activity. For particulate ALDH assay, the pellet (and homogenate for total ALDH) was resuspended in homogenizing buffer and treated with 0.25% Triton X-100 for 30 min at 4°C. The solubilized preparations were centrifuged at 48,000 g for 30 min and the supernatants were drawn off for ALDH determinations.
(§2) ALDH activity was measured by monitoring the reduction of NAD or NADp for 5-6 min at […] at 37°C in DU70 spectrophotometer (Beckman). The assay mixture contained 50 mM potassium phosphate buffer, pH 7.4, 2.0 mM NAD (or NADP) and 1.0 mM EDTA. The reaction was started by adding the substrate (SDA or other aldehyde) to the prewarmed (5 min at 37°C) assay mixture containing enzyme preparation. Pyrazole (0.1 mM) was added particularly for liver enzyme, to inhibit alcohol dehydrogenase. The apparent Km and maximum velocity (Vmax) values were calculated using a Lineweaver-Burk plot based on the estimation of the slope by regression analysis. Enzyme activity was expressed as mU (nmoles/min) per mg of protein. Protein contents were determined by the Bradford method, using bovine serum albumin as the standard.

[2] = system: Human T lymphocytes; assay: PHA driven human T cell proliferation after 1 hour incubation; format: cell-based; settings: 0.62 x 10⁻² mM, 1 hour at 37°C, washed; Figure 1
Experimental: Human T & B lymphocytes were incubated separately with different concentrations of spermine dialdehyde in vitro for 1 hour. Cells were washed extensively and set up in a PHA (for T cell) or PWM (B cell) proliferation assay. A graph is depicted wherein percentage of response is plotted as a function of concentration of spermine dialdehyde.
Peripheral blood lymphocytes (PBL) were obtained from the blood of normal donors by using standard Ficoll-Hypaque gradient techniques. The T and non-T cells were separated by standard sheep red blood cell (SRBC) rosetting technique. Briefly, 5 x 10⁶/ml PBL were incubated with 1% neuraminidase-treated SRBC, and rosetted cells were separated from non-rosetted cells in a Ficoll-Hypaque gradient. The rosetted cells were designated as T cells. Purified B lymphocytes were obtained from non-rosetted cells by removal of residual T cells using the Pan T monoclonal antibody OKT 11 and complement.
T cell proliferation: 7 x 10⁴ - 10⁵ human T lymphocytes were cultured in flat bottom microtiter plates (Flow) in the presence of 0.1% PHA-P or 1/64 PWM for 4 days. 3H-thymidine (0.1 MCi/well) was added for the last 6 hours of the culture period. […] Cell associated radioactivity was determined by scintillation counting in an automated counter. All of the results were expressed as % response calculated according to the formula: [formula] […]

[3] = target: T1, S-Adenosylmethionine Decarboxylase (AdoMet DC) (Mus musculus, UniProt P0DMN7); assay: AdoMet DC inhibition in L1210 cell supernatants ([14C]CO2 release); format: biochemical, Murine
T1 construct: endogenous in cells; host or cells: murine leukemic L1210 cells (supernatant)
T1 sequence (P0DMN7 68-334 limits assumed): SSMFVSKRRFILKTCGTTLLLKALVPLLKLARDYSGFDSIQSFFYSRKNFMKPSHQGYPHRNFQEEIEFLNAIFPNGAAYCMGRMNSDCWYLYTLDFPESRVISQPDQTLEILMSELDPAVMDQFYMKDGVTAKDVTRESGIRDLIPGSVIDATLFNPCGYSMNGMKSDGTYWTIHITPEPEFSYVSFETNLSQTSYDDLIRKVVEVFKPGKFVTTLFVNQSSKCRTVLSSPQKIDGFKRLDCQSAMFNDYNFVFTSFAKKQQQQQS
T1 sequence (P0DMN7 1-67 limits assumed): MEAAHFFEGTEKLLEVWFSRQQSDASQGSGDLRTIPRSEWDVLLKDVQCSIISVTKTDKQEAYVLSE
Experimental: Murine leukemic L1210 cell supernatants were incubated with different concentrations of SDA or butyl dialdehyde, and AdoMet DC activity was estimated by monitoring the release of [¹⁴C] CO₂. Inhibition curves for both drugs were superimposable with IC₅₀ values of 0.12-0.13 x 10⁻³ M.

[4] = system: ALDH; assay: ALDH assay in L1210/0 cells; format: biochemical, Murine; settings: SDA as substrate
Experimental: as §1, §2

[5] = system: BFU-E and CFU-GM colonies; assay: Hemopoietic colony formation assay; format: cell-based, murine
Experimental: Hemopoietic colony forming cells were cultured as described in the art by Iscove & Sieber with minor modifications. SDA/DEAB treated or vehicle treated cells were added to murine hemopoietic culture mixture with erythropoietin and conditioned medium (Terry Fox Laboratories, Vancouver, Canada). The mixture was vortexed and 1-2 ml portions (1 x 10⁵ bone marrow cells) were plated in duplicate in 35 mm plastic petri dishes (lux suspension dishes, Flow Laboratories). The culture dishes were incubated in a humidified atmosphere (95% air : 5% CO₂) at 37°C. Colonies were counted on day 8 or 10 for BFU-E, CFU-GM and CFU-mix. Colony types were confirmed with Wright/Giemsa Stain.

**Q.** Which results are given for `O=CCCNCCCCNCCC=O` [SDA, NN′-Bis-(3-propionaldehyde)-1-4-diaminobutane]?
**A.** specific activity of ALDH, liver compared to L1210 cells ([1]; SDA as substrate, per mg protein): 1.5 times; Km ([1]; as substrate, mouse liver cytosol, NAD, ± SEM, 3-4 experiments): 48.5 µM; Specific (activity of ALDH) ([1]; as substrate, mouse liver cytosol, propionaldehyde 1.0 mM): 10.5 ± 3.2 mU/mg Protein; inhibited T cell proliferation [2]: 85%; inhibition of AdoMet DC (in words) ([3]; Fig. 9 and Figure 10): inhibited both of the key enzymes; IC50 ([3]; Figure 9, inhibition curves superimposable, read-out: IC₅₀ values): 120 to 130 µM; enzyme activity in L1210/0 cells [4]: did not exhibit any detectable enzyme activity; suppression of BFU-E and CFU-GM colonies ([5]; 50 µM): almost total suppression; sensitivity of myeloid colony forming cells after DEAB pretreatment ([5]; SDA 10-25 µM, DEAB pretreatment): further potentiated the sensitivity
